# According to patent publication US5942493A, “LH-RH antagonists having improved action” (ASTA Medica Aktiengesellschaft, priority 1995, dated 1999):
# Like-named read-outs stand apart in the source and are kept apart here. *1 amine or outer side, *2 acyl side, *3 side chain or, on linkers, in order; H or OH if unused. Where a SMILES comes first, the peptide text is derived from it. Side-chain parts run from the residue outwards. [ ]: non-standard residue; d: D form. The star is where a group is joined. NH(4-amidinophenyl) = N=C(N)c1ccc(N*)cc1; dPhe(4-Cl) = N[C@H](Cc1ccc(Cl)cc1)C(=O)O; d2Nal = N[C@H](Cc1ccc2ccccc2c1)C(=O)O; dCit = NC(=O)NCCC[C@@H](N)C(=O)O; d3Pal = N[C@H](Cc1cccnc1)C(=O)O; Suc = O=C(CCC(=O)[*:2])[*:1]
# Experiments:
# human LH-RH receptor [1] = biological target: T1, human LH-RH receptor (Homo sapiens, UniProt P30968); assay: Competitive binding test (displacement of [125I] Cetrorelix) on cell clone L3.5/78
# T1 construct: expressed in transfected cells
# T1 sequence (P30968 1-328): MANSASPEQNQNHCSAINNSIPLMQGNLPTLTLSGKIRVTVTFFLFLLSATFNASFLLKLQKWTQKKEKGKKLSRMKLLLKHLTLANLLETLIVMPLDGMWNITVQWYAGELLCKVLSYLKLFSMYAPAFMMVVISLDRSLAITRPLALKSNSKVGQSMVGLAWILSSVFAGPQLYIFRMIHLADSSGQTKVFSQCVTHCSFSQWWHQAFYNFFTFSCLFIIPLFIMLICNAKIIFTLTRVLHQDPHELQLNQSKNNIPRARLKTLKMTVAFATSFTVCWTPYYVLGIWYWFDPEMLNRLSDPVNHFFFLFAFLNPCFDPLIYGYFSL
# Method: Method for the determination of the binding affinity (dissociation constant Kd):
# The binding affinity was determined by a competitive binding test ("displacement binding experiment"; Beckers et al. Eur. J. Biochem. 231, 535-543, 1995). The radiolabelled ligand used is [^125 I] Cetrorelix (specific activity 5-10×10^5 dpm/pmol; dissolved in 20% v:v acetonitrile, 0.2% w:v albumin, 0.1% w:v TFA, ~80% v:v aqua). The binding ability of the iodinated peptide is between 60% and 85%. The non-labelled test compounds used are Cetrorelix, Example 1, Example 2 and […] in solution. The substances are employed in concentrations of 0.01 nM-1000 nM (Cetrorelix, Example 1, Example 2) or 0.01 μM-10 μM (Example 56).
# The cells of the individual cell clone L3.5/78 verexpressing the human LH-RH receptor which are used for the binding test are removed with PBS/EDTA (PBS without Ca^2+ /Mg^2+ /1 mM EDTA) from a cell culture dish grown under non-confluent conditions, the cell count is determined and the cells are resuspended in incubation medium (Dulbecco's modified Eagle Medium with 4.5 g/l glucose, 10 mM Hepes pH 7.5, 0.5% w:v BSA, 1 g/l bacitracin, 0.1 g/l SBTI, 0.1% w:v NaN3) at a corresponding cell density. 200 μl of silicone/paraffin oil mixture (84/16% by volume) are initially introduced into special 400 μl reaction vessels (Renner, Beckman type) and 50 μl of the cell suspension (2.5×10^5 cells) are pipetted onto it. 50 μl of binding medium containing [^125 I] Cetrorelix and the compound to be tested at the appropriate concentration are added to the cell suspension on the silicone/paraffin oil layer. The mixture is then incubated with rotation for 60 min at 37° C. in a warm cabinet. After this step, it is centrifuged at 9000 rpm (room temperature) for 2 min in the Heraeus Biofuge 15 in the HTA 13.8 rotor. In the course of this, the cells pelletize through the silicone/paraffin oil layer and are thus separated from the binding medium. After centrifugation, the reaction vessels are shock-frozen in liquid N2 and the tip of the reaction vessel (cell pellet) is cut off with a pair of pincers and the tip containing the cell pellet (bound ligand [^125 I] Cetrorelix) and the supernatant (unbound, free ligand [^125 I] Cetrorelix) are transferred to counting tubes. To determine the maximum binding (Bo), no competitor is added. For the determination of non-specific binding, 1 μM unlabelled Cetrorelix is added for competition. At ≤10% of the total binding Bo, the non-specific binding is low. Quantification is carried out in a γ-counter; analysis is carried out using the EBDA/ligand V3.0 programme (McPherson, J. Pharmacol. Methods 14, 213-228, 1985). Plotting in the dose-response graph makes possible the estimation of the IC50 (concentration which causes 50% inhibition of the reaction at the receptor) and the EBDA/ligand programme calculates the dissociation constant Kd [nM] from this.
# Water solubility = assay type: physicochemical
# histamine release = assay: Histamine release in vitro
# [2] = tested on: testosterone in the blood; assay: Hormone-suppressive action: testosterone suppression in the healthy male rat; assay type: in vivo
# Method: To determine the suppression of testosterone in the blood of healthy male rats, the substance was injected subcutaneously into the right flank of the animals. The dosage was 1.5 mg/kg in the case of Example 1 and Example 2 and 10 mg/kg in the case of Example 56. To check the testosterone values, about 300 μl of blood were taken from the animals from the sublingual vein at the times 0, 2, 4, 8 (only Example 56), 24, 48, 72 and 96 hours, and then every 3 days until the end of suppression. […] Example 56 (10 mg/kg s.c.) suppressed the testosterone level in all 5 animals even after 2 hours and maintained this action for up to 8 hours. At the next measuring point (24 h), the testosterone values rose again (FIG. 6).
# human LH-RH receptor [3] = biological target: T1, human LH-RH receptor; assay: Functional assay: inhibition of LH-RH-stimulated IP3 formation in cell clone L 3.5/78; assay type: cell-based; details: for IC50: stimulation with 10 nM LH-RH, estimated from dose-response curve
# Method: Method for the determination of IP3 (D-myo-[…]): a subconfluent culture of the cell clone (L 3.5/78) overexpressing the human LH-RH receptor is washed 1× with PBS, the cells are removed with PBS/EDTA and the cell suspension is pelletted. The cells are resuspended in incubation medium (Dulbecco's modified Eagle Medium with 4.5 g/l of glucose, 10 mM Hepes pH 7.5, 0.5% w:v BSA, 5 mM of LiCl, 1 g/l of bacitracin, 0.1 g/l of SBTI), aliquoted into 1.5 ml reaction vessels and preincubated at 37° C. for 30 min. 4×10^6 cells in a 500 μl volume are needed per measuring point. After the preincubation step, LH-RH (stock solution 0.5 mM in 10 mM tris pH 7.5, 1 mM dithiothreitol, 0.1% w:v BSA/Bachem Art # H4005) are added to the cell suspension at a final concentration of 10 nM. The action of an antagonist is tested by simultaneous addition at the corresponding concentration (for example 0.0316, 0.1, 0.316 etc. up to 100 nM for Example 2). As a negative control, cells without added LH-RH are incubated. After incubation at 37° C. for 15 min, IP3 formed is isolated from the cells by means of trichloroacetic acid (TCA) extraction. To this end, 500 μl of ice-cold 15% (w:v) TCA solution are added to the cell suspension. The resulting precipitate is pelletted by centrifugation at […] in the Heraeus Biofuge 15R centrifuge at 2000×g for 15 min. The supernatant of 950 μl is extracted 3× with 10 vol of cold, water-saturated diethyl ether in a 15 ml vessel standing on ice. After the last extraction step, the solution is adjusted to a pH of 7.5 with 0.5 M NaHCO3 solution.
# The determination of the IP3 concentration in the cell extracts is carried out by means of a sensitive competitive binding test using an IP3 binding protein, labelled [^3 H]-IP3 and unlabelled IP3. To this end, an assay kit from Amersham (TRK 1000) is used; the determination is carried out as described in the assay protocol. After carrying out the various steps, 2 ml of scintillator for aqueous samples (Rotiszint Ecoplus) is finally added, the resuspended pellet containing the bound [^3 H]-IP3 is carefully mixed with it, and measured in a β-scintillation counter. The amount of cellular IP3 is calculated using a standard curve and a dose-response curve is set up. The IC50 can be estimated from the inflection point of this curve.
# [4] = [125I] Cetrorelix as ligand, single curves of FIG. 1, read-out: binding affinity as the dissociation constant Kd (competition curves of FIG. 1)
# [5] = mean values from various experiments, number of experiments in brackets, read-out: Affinity human LH-RH receptor (dissociation constant Kd)
# [6] = 10 mg/kg s.c., healthy male rats, all 5 animals
SMILES,Kd (human LH-RH receptor [1]; [4]) [nM],Kd (human LH-RH receptor [1]; [5]) [nM],H2O Solubility (Water solubility) [mg/mL],(IC50) Histamine releage (histamine release) [µg/mL],IC50 (human LH-RH receptor [3]) [nM],other results
"CC(=O)N[C@H](Cc1ccc2ccccc2c1)C(=O)N[C@H](Cc1ccc(Cl)cc1)C(=O)N[C@H](Cc1cccnc1)C(=O)N[C@@H](CO)C(=O)N[C@@H](Cc1ccc(O)cc1)C(=O)N[C@H](CCCCNC(=O)C1CNC(=O)N1)C(=O)N[C@@H](CC(C)C)C(=O)N[C@@H](CCCNC(=N)N)C(=O)N1CCC[C@H]1C(=O)N[C@H](C)C(N)=O (single isomer, unassigned) [Example 1, Ac-D-Nal(2)-D(pCl)Phe-D-Pal(3)-Ser-Tyr-D-[ε-N'-(imidazolidin-2-on-4-yl)formyl]-Lys-Leu-Arg-Pro-D-Ala-NH2]",0.305,0.306,27,31.9,,
"CC(=O)N[C@H](Cc1ccc2ccccc2c1)C(=O)N[C@H](Cc1ccc(Cl)cc1)C(=O)N[C@H](Cc1cccnc1)C(=O)N[C@@H](CO)C(=O)N[C@@H](Cc1ccc(O)cc1)C(=O)N[C@H](CCCNC(N)=O)C(=O)N[C@@H](CC(C)C)C(=O)N[C@@H](CCCNC(=N)N)C(=O)N1CCC[C@H]1C(=O)N[C@H](C)C(N)=O [Cetrorelix, Ac-D-Nal(2)-D-p-Cl-Phe-D-Pal(3)-Ser-Tyr-D-Cit-Leu-Arg-Pro-D-Ala-NH2, reference compound] (Ac-[d2Nal][dPhe(4-Cl)][d3Pal]SY[dCit]LRP[dA]-NH2)",0.214,0.202,9,9.7,,"(1.5 mg/kg, single dose) testosterone suppression rats ([2]; 1.5 mg/kg, single dose, rats): 144 h"
N=C(N)c1ccc(NC(=O)CCC(=O)NCCCCC(NC(=O)OCc2ccccc2)C(N)=O)cc1.O=C(O)C(F)(F)F (stereo not shown) [Example 56],,1080,,,~4000,"functional character at the LH-RH receptor (human LH-RH receptor [3]; 10 nM LH-RH, IP3 formation): functional antagonists of LH-RH; agonistic activity (stimulation of IP3 synthesis by the substance itself) (human LH-RH receptor [3]; without LH-RH): not possible to determine any agonistic activity; duration of testosterone suppression [2, 6]: up to 8 hours; time at which testosterone level was already suppressed [2, 6]: 2 h"

# Further lines, with some results ahead:
Kd (human LH-RH receptor [1]; [4]) [nM],Kd (human LH-RH receptor [1]; [5]) [nM],H2O Solubility (Water solubility) [mg/mL],(IC50) Histamine releage (histamine release) [µg/mL],IC50 (human LH-RH receptor [3]) [nM],SMILES,other results
,0.17,,,,"CC(=O)N[C@H](Cc1ccc2ccccc2c1)C(=O)N[C@H](Cc1ccc(Cl)cc1)C(=O)N[C@H](Cc1cccnc1)C(=O)N[C@@H](CO)C(=O)N[C@@H](Cc1ccc(O)cc1)C(=O)N[C@H](CCCCNC(=O)C1CNC(=O)N1)C(=O)N[C@@H](CC(C)C)C(=O)N[C@@H](CCCNC(=N)N)C(=O)N1CCC[C@H]1C(=O)N[C@H](C)C(N)=O (single isomer, unassigned) [Example 3]",
0.104,,23,17.1,~0.4,"CC(=O)N[C@H](Cc1ccc2ccccc2c1)C(=O)N[C@H](Cc1ccc(Cl)cc1)C(=O)N[C@H](Cc1cccnc1)C(=O)N[C@@H](CO)C(=O)N[C@@H](Cc1ccc(O)cc1)C(=O)N[C@H](CCCCNC(=O)CCC(=O)Nc1ccc(C(=N)N)cc1)C(=O)N[C@@H](CC(C)C)C(=O)N[C@@H](CCCNC(=N)N)C(=O)N1CCC[C@H]1C(=O)N[C@H](C)C(N)=O [Example 2, Ac-D-Nal(2)-D(pCl)Phe-D-Pal(3)-Ser-Tyr-D-[ε-N'-4-(4-amidinophenyl)amino-1,4-dioxobutyl]-Lys-Leu-Arg-Pro-D-Ala-NH2] (Ac-[d2Nal][dPhe(4-Cl)][d3Pal]SY[dK]([Suc-NH(4-amidinophenyl)])LRP[dA]-NH2)","Kd (human LH-RH receptor [1]; quoted in Example 84, read-out: in vitro binding affinity Kd, competitive binding test using [125I]-Cetrorelix): 0.109 nM"
,0.206,,,,CC(=O)N[C@H](Cc1ccc2ccccc2c1)C(=O)N[C@H](Cc1ccc(Cl)cc1)C(=O)N[C@H](Cc1cccnc1)C(=O)N[C@@H](CO)C(=O)N[C@@H](Cc1ccc(O)cc1)C(=O)N[C@H](CCCCNC(=O)CCC(=O)Nc1ccc(C(=N)N)cc1)C(=O)N[C@@H](CC(C)C)C(=O)N[C@@H](CCCNC(=N)N)C(=O)N1CCC[C@H]1C(=O)N[C@H](C)C(N)=O [Example 4] (Ac-[d2Nal][dPhe(4-Cl)][d3Pal]SY[dK]([Suc-NH(4-amidinophenyl)])LRP[dA]-NH2),
